The text below walks through data of patent US20250090699A1, “FAP TARGETING CYCLIC PEPTIDES AND CONJUGATES THEREOF” (Novartis AG, priority 2023, published 2025).

What is called Kd is the concentration at which binding is half-saturated. One may read the IC50 as the concentration at which inhibition is half-maximal.

Experiment [1] deals with T1, human FAP (Homo sapiens, UniProt Q12884).
T1 construct: the biotinylated His, Avi tag, human FAP (26-760, FAP-H82Q6); His; Avi tag (biotinylated); purchased AcroBiosystems FAP-H82Q6
T1 sequence (Q12884 26-760): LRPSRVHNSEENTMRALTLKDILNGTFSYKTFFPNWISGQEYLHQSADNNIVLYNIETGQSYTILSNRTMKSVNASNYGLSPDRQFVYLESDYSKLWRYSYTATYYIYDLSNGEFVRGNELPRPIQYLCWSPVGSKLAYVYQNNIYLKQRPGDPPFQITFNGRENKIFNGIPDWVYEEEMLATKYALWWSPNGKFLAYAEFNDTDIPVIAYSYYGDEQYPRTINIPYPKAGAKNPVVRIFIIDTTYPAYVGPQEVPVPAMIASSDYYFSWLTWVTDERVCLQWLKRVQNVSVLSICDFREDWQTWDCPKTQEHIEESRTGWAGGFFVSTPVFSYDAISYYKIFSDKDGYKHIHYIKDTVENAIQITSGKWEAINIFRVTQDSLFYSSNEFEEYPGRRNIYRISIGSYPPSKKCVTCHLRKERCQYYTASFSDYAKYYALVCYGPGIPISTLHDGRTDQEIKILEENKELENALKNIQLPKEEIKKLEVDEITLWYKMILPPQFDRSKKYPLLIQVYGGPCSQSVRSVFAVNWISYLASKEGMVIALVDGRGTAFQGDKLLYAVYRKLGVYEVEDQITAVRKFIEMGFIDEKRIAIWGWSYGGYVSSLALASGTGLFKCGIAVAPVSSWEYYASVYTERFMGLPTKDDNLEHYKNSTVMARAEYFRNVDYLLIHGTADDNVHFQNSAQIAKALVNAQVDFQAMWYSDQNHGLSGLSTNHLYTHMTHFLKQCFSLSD
Description: Surface plasmon resonance (SPR) for peptide affinity, human FAP. Type of experiment: binding. As to conditions: read-out: h. FAP, SPR, KD. On the procedure: Peptide affinities (KD) were determined by SPR using a Biacore™ 8K device (Cytiva) towards the following proteins: biotinylated His, Avi tag, human FAP (26-760, FAP-H82Q6), biotinylated His, Avi tag, mouse FAP (26-761, FAP-M82Q5), His tag, human DPP4 (34-766, DP4-H82E3), all purchased from AcroBiosystems and His tag, mouse DPP4 (29-760, 954-SE) from R&D Systems. The FAP proteins and their homologous were diluted to a concentration of 2 μg/mL into acetate buffer pH 5.5, then immobilized onto a CM5 sensorchip (Cytiva, BR-1005-30) to reach a response around 2000 R U. The running buffer HBS-EP+pH 7.6 (20× from Teknova CAT. No: H8022) contained 10 mM HEPES pH 7.6, 150 mM NaCl, 3 mM EDTA, 0.05% Tween20 and 2% DMSO. Experiments were carried out at 25° C. using a flow rate of 30 μL/min. Compounds were tested in single cycle kinetic mode at 8 different concentrations. Curve fitting was performed using the Biacore™ 8K evaluation software. The sensorgrams were fitted by applying a 1:1 binding model to calculate kinetic rate constants and equilibrium dissociation constants (KD).
For this assay, the setup had the same conditions (flow rate, running buffer, peptide dilution) as described above for the CM5 method. The oligo CAP reagent obtained in the CAPture Kit (Ref. 28920234) was 1/5 diluted into running buffer and used with a contact time of 300 s at a flow rate of 2 μL/min. The human and mouse FAP constructs described above were used (from AcroBiosystems or produced in house). The FAP proteins were diluted to a concentration of 2 μg/mL into acetate pH 5.5, 0.05% Tween20 and used with a contact time of 600 s at a flow rate of 10 μL/min. The peptides were tested with an association time of 280 s followed by a dissociation time of 3000 s at a flow rate of 30 μL/min. The regeneration was done using the regeneration solution (8 M guanidine-HCl, 1 M NaOH) as obtained with a contact time of 270 s at a flow rate of 10 μL/min. […] The compounds marked with an asterisk were tested against human and mouse DDP4.
In general terms: SPR reads the build-up and loss of mass on a sensor chip optically.

The target in experiment [2] is T2, mouse FAP (Mus musculus, UniProt P97321).
T2 construct: biotinylated His, Avi tag, mouse FAP (26-761, FAP-M82Q5); His; Avi tag (biotinylated); purchased AcroBiosystems FAP-M82Q5
T2 sequence (P97321 26-761): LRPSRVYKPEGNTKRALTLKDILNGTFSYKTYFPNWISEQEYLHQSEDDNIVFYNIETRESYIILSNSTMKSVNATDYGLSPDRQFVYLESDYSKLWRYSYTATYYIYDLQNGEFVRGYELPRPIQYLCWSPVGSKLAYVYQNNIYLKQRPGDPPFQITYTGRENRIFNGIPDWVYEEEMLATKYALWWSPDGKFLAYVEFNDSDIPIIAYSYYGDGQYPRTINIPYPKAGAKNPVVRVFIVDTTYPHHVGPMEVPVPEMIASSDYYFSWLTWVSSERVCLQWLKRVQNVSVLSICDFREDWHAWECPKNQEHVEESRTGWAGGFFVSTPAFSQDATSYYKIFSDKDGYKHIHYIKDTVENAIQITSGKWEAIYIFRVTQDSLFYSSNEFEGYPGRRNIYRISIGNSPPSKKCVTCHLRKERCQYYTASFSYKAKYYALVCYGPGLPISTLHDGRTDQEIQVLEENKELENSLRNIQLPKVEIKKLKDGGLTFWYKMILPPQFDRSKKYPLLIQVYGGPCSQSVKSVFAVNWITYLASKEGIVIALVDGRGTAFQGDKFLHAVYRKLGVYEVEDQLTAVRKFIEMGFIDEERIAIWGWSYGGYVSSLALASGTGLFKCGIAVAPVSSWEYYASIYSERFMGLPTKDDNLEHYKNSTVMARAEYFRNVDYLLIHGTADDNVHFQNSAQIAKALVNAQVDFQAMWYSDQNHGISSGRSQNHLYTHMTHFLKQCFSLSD
As to the kind of experiment: Surface plasmon resonance (SPR) for peptide affinity, mouse FAP. Type of experiment: binding. Put shortly:
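KD values come from a 1:1 kinetic fit of single-cycle SPR data: 8 peptide concentrations, 25 °C, 30 μL/min, HEPES-buffered saline pH 7.6 with 2% DMSO. Targets were His/Avi-tagged human (26-760) or mouse (26-761) FAP, amine-coupled to CM5 or held on a CAPture chip.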

Experiment [3] addresses T1, human FAP. Description: Enzymatic FAP competition assay (Z-Gly-Pro-AMC fluorescence), human FAP. Type of experiment: biochemical. As to conditions: read-out: h. FAP, Enz., IC50. The procedure, abridged: (§1)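 IC50 values come from curve fitting of duplicate % inhibition data on AMC fluorescence (ex 380, em 460 nm) after 4 h at 22-24° C with 50 μM Z-Gly-Pro-AMC. Beforehand, peptides up to 1 μM (14 levels) sat 24 h with 0.01 nM human (26-760) or mouse (26-761) tagged FAP in phosphate buffer pH 7.5, NaCl, Tween20, 1% DMSO.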

Experiment [4] concerns the target T2, mouse FAP. As to the kind of experiment: Enzymatic FAP competition assay (Z-Gly-Pro-AMC fluorescence), mouse FAP. Type of experiment: biochemical. The note with it: read-out: m. FAP, Enz., IC50. The procedure, abridged:
as §1

Starred links: 1 amine or outer side, 2 acyl side, 3 side chain; linkers in the order of their positions; H or OH if unused. Positions of bridges follow the written chain, without caps; N, C: chain ends. Non-standard residues stand in square brackets, D forms with d. Residues, ends and D or L forms follow the SMILES beside them. Groups on a side chain read outwards from the residue. Chains are numbered I, II in the order given. *: point of attachment. F(4amPEG2NHDOTA-Lu) = lutetium complex of (S)-2,2',2''-(10-(1-(4-(2-amino-2-carboxyethyl)phenyl)-3,12-dioxo-5,8-dioxa-2,11-diazatridecan-13-yl)-1,4,7,10-tetraazacyclododecane-1,4,7-triyl)triacetic acid (Phe with 4-aminomethyl-PEG2-DOTA-Lu), O=C([O-])CN1CCN(CC(=O)[O-])CCN(CC(=O)NCCOCCOCC(=O)NCc2ccc(C[C@H](N[*:1])C(=O)[*:2])cc2)CCN(CC(=O)[O-])CC1.[Lu+3]; X1 = O=C(O)CN1CCN(CC(=O)O)CCN(CC(=O)NC(CC(=O)NCCOCCOCC(=O)[*:1])CC(=O)NCCOCCOCC(=O)[*:2])CCN(CC(=O)O)CC1; Q(Pyrro(2CN4F2)) = 2-amino-5-(2-cyano-4,4-difluoropyrrolidin-1-yl)-5-oxopentanoic acid; COpipzaa = 4-(carboxymethyl)piperazine-1-carbonyl, O=C(O)CN1CCN(C(=O)*)CC1; Phe(4-CH2NH2) = NCc1ccc(C[C@H](N)C(=O)O)cc1; Piperazinyl(4-CH2COOH) = O=C(O)CN1CCN(*)CC1; NMeF = CN[C@@H](Cc1ccccc1)C(=O)O; Ahp(2) = CCCCC[C@H](N)C(=O)O; hSer = N[C@@H](CCO)C(=O)O; CO = O=C([*:1])[*:2]; Propyl = CCC*

Regarding “Gly-Gly-NMePhe-F(4amPEG2NHDOTA-Lu)-Q(Pyrro(2CN4F2))-Trp-Gly-K(COpipzaa)-Asp-D-Pro (cyclo(GG[NMeF][F(4amPEG2NHDOTA-Lu)][Q(Pyrro(2CN4F2))]WGK(COpipzaa)D[dP]); also: Lu complex) [Example C19]”, the Kd in experiment [1] is < 0.018 nM; in experiment [2], < 0.04 nM. For the same compound, the IC50 in experiment [3] worked out at 0.018 nM; in experiment [4] it was 0.031 nM.

For the compound `CCCCC[C@@H]1NC(=O)[C@H](Cc2ccc(O)cc2)NC(=O)[C@H](Cc2ccccc2)N(C)C(=O)CNC(=O)CNC(=O)[C@H]2CCCN2C(=O)[C@H](CC(=O)O)NC(=O)[C@H](Cc2ccc(O)cc2)NC(=O)CNC(=O)[C@H](Cc2c[nH]c3ccccc23)NC1=O` [Example A52, Gly-Gly-NMePhe-Tyr-Ahp-Trp-Gly-Tyr-Asp-D-Pro] (cyclo([Ahp(2)]WGYD[dP]GG[NMeF]Y)), the Kd was found to be 0.118 nM in experiment [1] and 0.36 nM in experiment [2]. Besides, the IC50 in experiment [3] amounted to 0.104 nM; in experiment [4], 0.737 nM.

As to `CCCOCC[C@@H]1NC(=O)[C@H](Cc2ccc(CNC(=O)COCCOCCNC(=O)CC(CC(=O)NCCOCCOCC(=O)NCc3ccc(C[C@@H]4NC(=O)[C@H](Cc5ccccc5)N(C)C(=O)CNC(=O)CNC(=O)[C@H]5CCCN5C(=O)[C@H](CC(=O)O)NC(=O)[C@H](CCCCNC(=O)N5CCN(CC(=O)O)CC5)NC(=O)CNC(=O)[C@H](Cc5c[nH]c6ccccc56)NC(=O)[C@H](CCOCCC)NC4=O)cc3)NC(=O)CN3CCN(CC(=O)O)CCN(CC(=O)O)CCN(CC(=O)O)CC3)cc2)NC(=O)[C@H](Cc2ccccc2)N(C)C(=O)CNC(=O)CNC(=O)[C@H]2CCCN2C(=O)[C@H](CC(=O)O)NC(=O)[C@H](CCCCNC(=O)N2CCN(CC(=O)O)CC2)NC(=O)CNC(=O)[C@H](Cc2c[nH]c3ccccc23)NC1=O` [Example M3] (I: cyclo(GG[NMeF][Phe(4-CH2NH2)][hSer](Propyl)WGK([CO-Piperazinyl(4-CH2COOH)])D[dP]) / II: cyclo(GG[NMeF][Phe(4-CH2NH2)][hSer](Propyl)WGK([CO-Piperazinyl(4-CH2COOH)])D[dP]); linker I:4-II:4 via X1), the Kd in experiment [1] is < 0.043 nM; in experiment [2] it was < 0.078 nM. Moreover, the half-maximal inhibitory concentration (IC50) in experiment [3] was 0.035 nM; in experiment [4] it was 0.144 nM.
